{"source": "patent US20090137517A1", "about": "“SENSITIZING A CELL TO CANCER TREATMENT BY MODULATING THE ACTIVITY OF A NUCLEIC ACID ENCODING RPS27L PROTEIN” (Agency for Science, Technology and Research, priority 2006, published 2009)", "test_system": "HCT116 cells", "experiment": "Cytokinesis blocked micronucleus (CBMN) assay", "format": "cell-based, human", "conditions": "RPS27L-depleted HCT116 cells, ADR (1 μM) 24 h", "procedure": "In order to examine DNA damage directly, the comet assay was used next. The comet assay is a single cell gel electrophoresis assay in which damaged DNA migrates to form a “comet tail” that is proportional to the amount of DNA damage (Collins, A. R. (2004) “The comet assay for DNA damage and repair: principles, applications, and limitations” Mol Biotechnol, vol. 26, p. 249-261). Cells were incubated with ADR for 24 h and were harvested and processed for the comet assay. […] We then investigated whether elevated DNA damage has caused chromosome instability. […]\nAfter treatment with ADR, cells were incubated with cytochalasin B (Sigma, 5 μg/ml) for an additional 22 h. […] Fixed cells were dropped onto clean slides and stained with 3 μg/ml Acridine Orange (which differentially stains cytoplasm and nucleus) (Hande, M. P., et al. (1996) “Induction and persistence of cytogenetic damage in mouse splenocytes following whole-body X-irradiation analysed by fluorescence in situ hybridization. II. Micronuclei.” Int J Radiat Biol.; vol. 70(4), p. 375-83; Hande, M. P., et al. (1997) “Induction and persistence of cytogenetic damage in mouse splenocytes following whole-body X-irradiation analysed by fluorescence in situ hybridization. III. Chromosome malsegregation/aneuploidy” Mutagenesis, vol. […] One thousand binucleated cells were scored for each sample.", "data": [{"smiles": "COc1cccc2c1C(=O)c1c(O)c3c(c(O)c1C2=O)C[C@@](O)(C(=O)CO)C[C@@H]3O[C@H]1C[C@H](N)[C@H](O)[C@H](C)O1", "note": "[ADR, adriamycin]", "values": [{"measurement": "micronucleus frequency", "result": "increased micronucleus frequency"}]}]}
